Source: US7674807B2, “Heterocycle-substituted n-phenyl-phthalamide derivatives, related compounds and their use as insecticides” (Bayer CropScience AG, priority 2004, dated 2010)

Legend:
[1] = test system: larva of Spodoptera litura; test: Test against larva of Spodoptera litura (leaf dip, sweet potato leaves); assay type: in vivo; conditions: 20 ppm concentration of the active component; third instar larvae; counted after 7 days; 25° C.
Method: Preparation of Test Solution:
In order to make an appropriate formulation of an active compound, 1 part by weight of the active compound was mixed with the above-mentioned amount of solvent containing the above-mentioned amount of emulsifier and the mixture was diluted with water to a prescribed concentration.
Leaves of sweet potato were soaked in the test solution diluted to a prescribed concentration with water, dried in the air and put in a dish of 9 cm diameter.
10 larvae of Spodoptera litura at the third instar were placed on the leaves and kept in a room at the constant temperature of 25° C. After 2 and 4 days further leaves of sweet potato were added and after 7 days the number of dead larvae was counted and the rate of death was calculated.
In this test the results of 2 dishes at 1 section were averaged.

[2] = test system: larva of Cnaphalocrocis medinalis Guenee; test: Test against larva of Cnaphalocrocis medinalis Guenee (sprayed paddy rice foliage); assay type: in vivo; conditions: 20 ppm concentration of the active component; second instar larvae; counted after 7 days; 25° C.
Method: Paddy rice (variety: Tamanishiki) planted in a pot was treated by spraying 50 ml per pot of the diluted aqueous solution of the prescribed concentration of the active compound prepared in the same manner as in the above-mentioned Biological Test Example 1. After the treated rice plant was dried in the air, their foliage part was cut in 4-5 cm length, which were put in a dish with 9 cm diameter with a sheet of filter paper and 2 ml of water. Five larvae of Cnaphalocrocis medinalis Guenee at the second instar were put in the dish that was placed in a room at the constant temperature of 25° C. After 2 and 4 days, each rest (each ⅓ amount) of foliage parts of rice plant were cut in the same manner and added to the dish. After 7 days the number of dead larvae was counted and the rate of death was calculated. In this test the results of 2 dishes at 1 section were averaged.

Row | SMILES | controlling effect, rate of death [1] [%] | controlling effect, rate of death [2] [%]
1 | CSC[C@H](C)NC(=O)c1c(I)cccc1C(=O)Nc1ccc(Cn2cc(C(F)(F)C(F)(F)C(F)(F)F)c(C(F)(F)C(F)(F)C(F)(F)F)n2)cc1C [compound 670] | 100 | 100
2 | CSC[C@H](C)NC(=O)c1c(Cl)cccc1C(=O)Nc1ccc(Cn2cc(C(F)(F)C(F)(F)C(F)(F)C(F)(F)F)c(C(F)(F)C(F)(F)F)n2)cc1C [compound 663] | 100 | 100
3 | Cc1cc(Cn2cc(C(F)(F)C(F)(F)C(F)(F)C(F)(F)F)c(C(F)(F)F)n2)ccc1NC(=O)c1cccc(I)c1C(=O)N[C@@H](C)C[S+](C)[O-] (stereo partly drawn) [compound 649] | 100 | 100
4 | Cc1cc(Cn2nc(C(F)(F)F)nc2C(F)(F)F)ccc1NC(=O)c1cccc(Cl)c1C(=O)NC(C)C[S+](C)[O-] (stereo not drawn) [compound 143] | 100 | 100
5 | CSC[C@H](C)NC(=O)c1c(I)cccc1C(=O)Nc1ccc(Cn2cc(C(F)(F)C(F)(F)C(F)(F)F)c(C(F)(F)F)n2)cc1C [compound 644] | 100 | 100
6 | CSCC(C)(C)NC(=O)c1c(I)cccc1C(=O)Nc1ccc(-n2ccc(C(F)(F)C(F)(F)F)n2)cc1C [compound 434] | 100 | 100
7 | CSCC(C)NC(=O)c1c(I)cccc1C(=O)Nc1ccc(Cc2c(C(F)(F)F)nn(C(F)F)c2OC(F)F)cc1C (stereo not drawn) [compound 262] | 100 | 100
8 | CSC[C@H](C)NC(=O)c1c(Cl)cccc1C(=O)Nc1ccc(Cn2cc(C(F)(F)C(F)(F)C(F)(F)F)c(C(F)(F)C(F)(F)F)n2)cc1C [compound 657] | 100 | 100
9 | CSC[C@H](C)NC(=O)c1c(I)cccc1C(=O)Nc1ccc(Cn2cc(C(F)(F)C(F)(F)F)c(C(F)(F)F)n2)cc1C [compound 640] | 100 | 100
10 | Cc1cc(C(C)n2nc(C(F)(F)F)cc2C(F)(F)F)ccc1NC(=O)c1cccc(I)c1C(=O)NC(C)(C)CS(C)(=O)=O (stereo not drawn) [compound 567] | 100 | 100
11 | CSC[C@H](C)NC(=O)c1c(Cl)cccc1C(=O)Nc1ccc(C(C)n2nc(C(F)(F)F)cc2C(F)(F)F)cc1C (stereo partly drawn) [compound 559] | 100 | 100
12 | Cc1cc(Cn2cc(C(F)(F)C(F)(F)C(F)(F)C(F)(F)F)c(C(F)(F)F)n2)ccc1NC(=O)c1cccc(I)c1C(=O)N[C@@H](C)CS(C)(=O)=O [compound 650] | 100 | 100
13 | CSCC(C)(C)NC(=O)c1c(Cl)cccc1C(=O)Nc1ccc(Cn2nc(C(F)(F)F)cc2C(F)(F)F)cc1C [compound 8] | 100 | 100
14 | CSCC(C)(C)NC(=O)c1c(I)cccc1C(=O)Nc1ccc(-n2nccc2C(F)(F)C(F)(F)F)cc1C [compound 422] | 100 | 100
15 | Cc1cc(Cn2nc(C(F)(F)F)cc2C(F)(F)F)ccc1NC(=O)c1cccc(Cl)c1C(=O)NC(C)C[S+](C)[O-] (mixture of isomers) [compound 13] | 100 | 100
16 | CSC[C@H](C)NC(=O)c1c(Cl)cccc1C(=O)Nc1ccc(Cn2cc(C(F)(F)C(F)(F)C(F)(F)C(F)(F)F)c(C(F)(F)F)n2)cc1C [compound 645] | 100 | 100
17 | Cc1cc(-n2nc(C(F)(F)F)cc2C(F)(F)F)ccc1NC(=O)c1cccc(Cl)c1C(=O)NC(C)CS(C)(=O)=O (stereo not drawn) [compound 322] | 100 | 100
18 | Cc1cc(Cn2cc(C(F)(F)C(F)(F)F)c(C(F)(F)F)n2)ccc1NC(=O)c1cccc(I)c1C(=O)N[C@@H](C)CS(C)(=O)=O [compound 642] | 100 | 100
19 | CSC[C@H](C)NC(=O)c1c(I)cccc1C(=O)Nc1ccc(Cn2cc(C(F)(F)C(F)(F)C(F)(F)C(F)(F)F)c(C(F)(F)F)n2)cc1C [compound 648] | 100 | 100
20 | CSCC(C)NC(=O)c1c(Cl)cccc1C(=O)Nc1ccc(-n2nc(C(F)(F)F)cc2C(F)(F)F)cc1C (stereo not drawn) [compound 318] | 100 | 100

Row | SMILES | controlling effect, rate of death [1] [%] | controlling effect, rate of death [2] [%]
21 | Cc1cc(C(C)n2nc(C(F)(F)C(F)(F)F)nc2C(F)(F)F)ccc1NC(=O)c1cccc(Cl)c1C(=O)N[C@@H](C)CS(C)(=O)=O (stereo partly drawn) [compound 580] | 100 | 100
22 | Cc1cc(Cn2nc(C(F)(F)F)cc2C(F)(F)F)ccc1NC(=O)c1cccc(Br)c1C(=O)NC(C)(C)CS(C)(=O)=O [compound 47] | 100 | 100
23 | Cc1cc(Cn2nc(C(F)(F)F)nc2C(F)(F)F)ccc1NC(=O)c1cccc(Cl)c1C(=O)NC(C)(C)C[S+](C)[O-] (stereo not drawn) [compound 138] | 100 | 100
24 | Cc1cc(Cn2cc(C(F)(F)C(F)(F)C(F)(F)F)c(C(F)(F)C(F)(F)F)n2)ccc1NC(=O)c1cccc(Cl)c1C(=O)N[C@@H](C)C[S+](C)[O-] (stereo partly drawn) [compound 658] | 100 | 100
25 | Cc1cc(Cn2cc(C(F)(F)C(F)(F)F)c(C(F)(F)F)n2)ccc1NC(=O)c1cccc(I)c1C(=O)N[C@@H](C)C[S+](C)[O-] (stereo partly drawn) [compound 641] | 100 | 100
26 | CSC[C@H](C)NC(=O)c1c(Cl)cccc1C(=O)Nc1ccc(C(C)n2nc(C(F)(F)F)nc2C(F)(F)C(F)(F)F)cc1C (stereo partly drawn) [compound 574] | 100 | 100
27 | CSC[C@H](C)NC(=O)c1c(F)cccc1C(=O)Nc1ccc(Cn2nc(C(F)(F)F)cc2C(F)(F)F)cc1C [compound 549, N^1-{4-[3,5-bis(trifluoromethyl)-1H-pyrazol-1-ylmethyl]-2-methylphenyl}-3-fluoro-N^2-[1-(S)-1-methyl-2-methylsulfanyl-ethyl]-phthalamide] | 100 | 100
28 | Cc1cc(Cn2nc(C(F)(F)F)cc2C(F)(F)F)ccc1NC(=O)c1cccc(Br)c1C(=O)NC(C)C[S+](C)[O-] (mixture of isomers) [compound 51] | 100 | 100
29 | CSC[C@H](C)NC(=O)c1c(I)cccc1C(=O)Nc1ccc(Cn2cc(C(F)(F)C(F)(F)C(F)(F)F)c(C(F)(F)C(F)(F)F)n2)cc1C [compound 660] | 100 | 100
30 | CSCC(C)NC(=O)c1c(I)cccc1C(=O)Nc1ccc(Cc2c(OC(F)F)nn(C(F)F)c2C(F)(F)F)cc1C (stereo not drawn) [compound 268] | 100 | 100
31 | Cc1cc(Cn2nc(C(F)(F)C(F)(F)F)nc2C(F)(F)F)ccc1NC(=O)c1cccc(Cl)c1C(=O)NC(C)CS(C)(=O)=O (stereo not drawn) [compound 157] | 100 | 100
32 | Cc1cc(C(C)n2nc(C(F)(F)F)cc2C(F)(F)F)ccc1NC(=O)c1cccc(I)c1C(=O)N[C@@H](C)C[S+](C)[O-] (stereo partly drawn) [compound 563] | 100 | 100
33 | Cc1cc(Cn2nc(C(F)(F)F)cc2C(F)(F)F)ccc1NC(=O)c1cccc(I)c1C(=O)NC(C)CS(C)(=O)=O (stereo not drawn) [compound 90] | 100 | 100
34 | CC[S+]([O-])CC(C)NC(=O)c1c(I)cccc1C(=O)Nc1ccc(Cn2nc(C(F)(F)F)nc2C(F)(F)F)cc1C (stereo not drawn) [compound 221] | 100 | 100
35 | Cc1cc(Cn2cc(C(F)(F)C(F)(F)C(F)(F)F)c(C(F)(F)C(F)(F)C(F)(F)F)n2)ccc1NC(=O)c1cccc(I)c1C(=O)N[C@@H](C)CS(C)(=O)=O [compound 672] | 100 | 100
36 | CSCC(C)NC(=O)c1c(I)cccc1C(=O)Nc1ccc(Cn2nc(C(F)(F)F)nc2C(F)F)cc1C (stereo not drawn) [compound 238] | 100 | 100
37 | CSCC(C)NC(=O)c1c(I)cccc1C(=O)Nc1ccc(Cn2cc(C(F)(F)F)nc2C(F)(F)F)cc1C (stereo not drawn) [compound 281] | 100 | 100
38 | CSC[C@H](C)NC(=O)c1c(C(=O)Nc2ccc(Cn3nc(C(F)(F)F)cc3C(F)(F)F)cc2C)cccc1[N+](=O)[O-] [compound 543] | 100 | 100
39 | Cc1cc(Cn2cc(C(F)(F)C(F)(F)F)c(C(F)(F)F)n2)ccc1NC(=O)c1cccc(Cl)c1C(=O)N[C@@H](C)CS(C)(=O)=O [compound 639] | 100 | 100
